Measured values reported in the supplement of paper PMC11451515.

Tests used:
Details in all cases: 48 h
SEM cells [1] = test: AUC of viability dose-response curve (% viability x log10 dose units); higher = less sensitive
In short: (§1)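 Library compounds in DMSO were applied for 48 h at 37°C at 11 threefold doses (47 μM to 0.79 nM) to medium-adapted leukemia cells in 1536-well plates holding 500 or 1000 cells/well. Luminescence from CellTiter-Glo One was normalised plate by plate against DMSO and cell-free wells. Area under the curve came from trapezoidal integration of a log-logistic fit, after scaling curves that rose above full viability and discarding those that failed quality control. The fit had four parameters and used log10 doses.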

NOMO1 [2] = test: as above
In short: as §1

P12-Ichikawa [3] = test: as above
In short: as §1

SEM cells [4] = test: cell viability relative to DMSO control; higher = less cytotoxic
In short: (§2)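 Before seeding, each leukemia line was adapted for at least four passages in each medium. NOMO1 or SEM cells (500 cells/well) and P12-Ichikawa cells (1000 cells/well) went into 1536-well plates at 5 μl, then received library compounds in DMSO by pin dosing across 11 threefold concentrations, 47 μM to 0.79 nM. Readout was CellTiter-Glo One luminescence after 48 h at 37°C, and viability is given as a per-plate percentage of DMSO wells, with cell-free wells as background.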

NOMO1 [5] = test: as above
In short: as §2

P12-Ichikawa [6] = test: as above
In short: as §2

CC(C)C[C@H](NC(=O)[C@@H](NC(=O)c1cccc(-c2ccccc2)n1)[C@@H](C)O)B(O)O
AUC of viability dose-response curve
Details | NOMO1 [2] | P12-Ichikawa [3] | SEM cells [1]
HPLM + 10% dialyzed FBS | 212 | 197 | 155
RPMI 5 mM glucose + 10% FBS | 218 | 184 | 149
RPMI 5 mM glucose + 10% dialyzed FBS | 230 | 201 | 149

cell viability [%]
Details | NOMO1 [5] | P12-Ichikawa [6] | SEM cells [4]
HPLM + 10% dialyzed FBS, 0.000781 µM | – | 101 | 98.1
HPLM + 10% dialyzed FBS, 0.00234 µM | – | 114 | 110
HPLM + 10% dialyzed FBS, 0.00702 µM | – | 112 | 108
HPLM + 10% dialyzed FBS, 0.0211 µM | – | 112 | 31.3
HPLM + 10% dialyzed FBS, 0.0632 µM | – | 45.1 | 9.24
HPLM + 10% dialyzed FBS, 0.19 µM | – | 7.04 | 8.75
HPLM + 10% dialyzed FBS, 0.569 µM | – | 6.52 | 8.47
HPLM + 10% dialyzed FBS, 1.71 µM | – | 6.5 | 8.47
HPLM + 10% dialyzed FBS, 5.12 µM | – | 3.21 | 7.07
HPLM + 10% dialyzed FBS, 15.4 µM | – | 1.52 | 4.73
HPLM + 10% dialyzed FBS, 46.1 µM | – | 1.32 | 3.46
RPMI 5 mM glucose + 10% FBS, 0.000781 µM | 94.7 | 103 | 93
RPMI 5 mM glucose + 10% FBS, 0.00234 µM | 111 | 118 | 107
RPMI 5 mM glucose + 10% FBS, 0.00702 µM | 115 | 123 | 99
RPMI 5 mM glucose + 10% FBS, 0.0211 µM | 128 | 110 | 18.2
RPMI 5 mM glucose + 10% FBS, 0.0632 µM | 66.2 | 17.8 | 9.27
RPMI 5 mM glucose + 10% FBS, 0.19 µM | 23.5 | 7.41 | 9.18
RPMI 5 mM glucose + 10% FBS, 0.569 µM | 8.87 | 6.75 | 8.81
RPMI 5 mM glucose + 10% FBS, 1.71 µM | 10.1 | 6.12 | 8.15
RPMI 5 mM glucose + 10% FBS, 5.12 µM | 7.67 | 4.81 | 6.37
RPMI 5 mM glucose + 10% FBS, 15.4 µM | 5.17 | 2.62 | 4.03
RPMI 5 mM glucose + 10% FBS, 46.1 µM | 3.38 | 1.65 | 3.46
RPMI 5 mM glucose + 10% dialyzed FBS, 0.000781 µM | 104 | 99.4 | 87.3
RPMI 5 mM glucose + 10% dialyzed FBS, 0.00234 µM | 125 | 109 | 100
RPMI 5 mM glucose + 10% dialyzed FBS, 0.00702 µM | 126 | 122 | 95.9
RPMI 5 mM glucose + 10% dialyzed FBS, 0.0211 µM | 131 | 124 | 28.4
RPMI 5 mM glucose + 10% dialyzed FBS, 0.0632 µM | 86.9 | 53.2 | 9.88
RPMI 5 mM glucose + 10% dialyzed FBS, 0.19 µM | 39.9 | 7.76 | 9.98
RPMI 5 mM glucose + 10% dialyzed FBS, 0.569 µM | 10.7 | 6.76 | 9.77
RPMI 5 mM glucose + 10% dialyzed FBS, 1.71 µM | 8.94 | 6.66 | 9.35
RPMI 5 mM glucose + 10% dialyzed FBS, 5.12 µM | 8.79 | 5.34 | 6.09
RPMI 5 mM glucose + 10% dialyzed FBS, 15.4 µM | 5.46 | 2.52 | 3.83
RPMI 5 mM glucose + 10% dialyzed FBS, 46.1 µM | 3.79 | 1.55 | 3.48

O=C(/C=C/c1c(C(=O)[O-])[nH]c2cc(Cl)cc(Cl)c12)Nc1ccccc1
AUC of viability dose-response curve
Details | NOMO1 [2] | P12-Ichikawa [3] | SEM cells [1]
HPLM + 10% dialyzed FBS | 471 | 466 | 466
RPMI 5 mM glucose + 10% FBS | 444 | 464 | 466
RPMI 5 mM glucose + 10% dialyzed FBS | 462 | 467 | 463

cell viability [%]
Details | NOMO1 [5] | P12-Ichikawa [6] | SEM cells [4]
HPLM + 10% dialyzed FBS, 0.000781 µM | 112 | 106 | 89.9
HPLM + 10% dialyzed FBS, 0.00234 µM | 115 | 111 | 120
HPLM + 10% dialyzed FBS, 0.00702 µM | 116 | 105 | 122
HPLM + 10% dialyzed FBS, 0.0211 µM | 116 | 103 | 122
HPLM + 10% dialyzed FBS, 0.0632 µM | 99.9 | 116 | 127
HPLM + 10% dialyzed FBS, 0.19 µM | 117 | 114 | 114
HPLM + 10% dialyzed FBS, 0.569 µM | 118 | 115 | 123
HPLM + 10% dialyzed FBS, 1.71 µM | 110 | 116 | 132
HPLM + 10% dialyzed FBS, 5.12 µM | 113 | 113 | 124
HPLM + 10% dialyzed FBS, 15.4 µM | 112 | 111 | 115
HPLM + 10% dialyzed FBS, 46.1 µM | 108 | 109 | 73.1
RPMI 5 mM glucose + 10% FBS, 0.000781 µM | 90.5 | 98 | 110
RPMI 5 mM glucose + 10% FBS, 0.00234 µM | 99 | 105 | 113
RPMI 5 mM glucose + 10% FBS, 0.00702 µM | 99.5 | 107 | 106
RPMI 5 mM glucose + 10% FBS, 0.0211 µM | 95.1 | 106 | 102
RPMI 5 mM glucose + 10% FBS, 0.0632 µM | 101 | 108 | 118
RPMI 5 mM glucose + 10% FBS, 0.19 µM | 116 | 110 | 112
RPMI 5 mM glucose + 10% FBS, 0.569 µM | 107 | 112 | 121
RPMI 5 mM glucose + 10% FBS, 1.71 µM | 107 | 120 | 122
RPMI 5 mM glucose + 10% FBS, 5.12 µM | 107 | 104 | 129
RPMI 5 mM glucose + 10% FBS, 15.4 µM | 124 | 107 | 118
RPMI 5 mM glucose + 10% FBS, 46.1 µM | 107 | 106 | 65.1
RPMI 5 mM glucose + 10% dialyzed FBS, 0.000781 µM | 110 | 103 | 95.9
RPMI 5 mM glucose + 10% dialyzed FBS, 0.00234 µM | 109 | 99.5 | 103
RPMI 5 mM glucose + 10% dialyzed FBS, 0.00702 µM | 114 | 107 | 110
RPMI 5 mM glucose + 10% dialyzed FBS, 0.0211 µM | 126 | 110 | 119
RPMI 5 mM glucose + 10% dialyzed FBS, 0.0632 µM | 126 | 107 | 104
RPMI 5 mM glucose + 10% dialyzed FBS, 0.19 µM | 120 | 108 | 125
RPMI 5 mM glucose + 10% dialyzed FBS, 0.569 µM | 115 | 103 | 101
RPMI 5 mM glucose + 10% dialyzed FBS, 1.71 µM | 120 | 107 | 121
RPMI 5 mM glucose + 10% dialyzed FBS, 5.12 µM | 111 | 66.2 | 128
RPMI 5 mM glucose + 10% dialyzed FBS, 15.4 µM | 127 | 108 | 118
RPMI 5 mM glucose + 10% dialyzed FBS, 46.1 µM | 118 | 113 | 60
